Source: patent publication US5057146A (priority 1986, dated 1991)
Where two headings read alike, the source gives them in different places.

Legend:
Phytophthora infestans = type: in vivo, Phytophthora infestans (tomato)
Pyricularia oryzae = type: in vivo, Pyricularia oryzae (rice)
Plasmopara viticola = experiment: foliar fungal disease control, Plasmopara viticola on vine; type: in vivo
Protocol: (§1) The compounds were tested against a variety of foliar fungal diseases of plants. The technique employed was as follows.
(§2) The plants were grown in John Innes Potting Compost (No 1 or 2) in 4 cm diameter minipots. The test compounds were formulated either by bead milling with aqueous Dispersol T or as a solution in acetone or acetone/ethanol which was diluted to the required concentration immediately before use. […] The sprays were applied to maximum retention and the root drenches to a final concentration equivalent to approximately 40 ppm a.i./dry soil. Tween 20, to give a final concentration of 0.05%, was added when the sprays were applied to cereals.
(§3) For most of the tests the compound was applied to the soil (roots) and to the foliage (by spraying) one or two days before the plant was inoculated with the disease. An exception was the test on Erysiphe graminis in which the plants were inoculated 24 hours before treatment. Foliar pathogens were applied by spray as spore suspensions onto the leaves of test plants. After inoculation, the plants were put into an appropriate environment to allow infection to proceed and then incubated until the disease was ready for assessment. The period between inoculation and assessment varied from four to fourteen days according to the disease and environment.
(§4) The disease control was recorded by the following grading: […]

Erysiphe graminis hordei = experiment: foliar fungal disease control, Erysiphe graminis hordei on barley; type: in vivo; conditions: inoculated 24 hours before treatment
Protocol: as §1, §2, §3, §4

Venturia inaequalis = experiment: foliar fungal disease control, Venturia inaequalis on apple; type: in vivo
Protocol: as §1, §2, §3, §4

Cercospora arachidicola = experiment: foliar fungal disease control, Cercospora arachidicola on peanut; type: in vivo
Protocol: as §1, §2, §3, §4

Puccinia recondita = experiment: foliar fungal disease control, Puccinia recondita on wheat; type: in vivo
Protocol: as §1, §2, §3, §4

[1] = 100 ppm foliar spray plus root drench approx. 40 ppm a.i./dry soil

| SMILES | disease control grading, Phytophthora infestans (tomato) (Phytophthora infestans; [1]) | disease control grading, Pyricularia oryzae (rice) (Pyricularia oryzae; [1]) | disease control grading, Plasmopara viticola (vine) (Plasmopara viticola; [1]) | disease control grading, Erysiphe graminis hordei (barley) (Erysiphe graminis hordei; [1]) | disease control grading, Venturia inaequalis (apple) (Venturia inaequalis; [1]) | disease control grading, Cercospora arachidicola (peanut) (Cercospora arachidicola; [1]) | disease control grading, Puccinia recondita (wheat) (Puccinia recondita; [1]) | disease control grading, Phytophthora infestans (tomato) (Phytophthora infestans; 25 ppm foliar spray only) | disease control grading, Pyricularia oryzae (rice) (Pyricularia oryzae; 25 ppm foliar spray only) | disease control grading, Plasmopara viticola (vine) (Plasmopara viticola; 25 ppm foliar spray only) | disease control grading, Erysiphe graminis hordei (barley) (Erysiphe graminis hordei; 25 ppm foliar spray only) | disease control grading, Venturia inaequalis (apple) (Venturia inaequalis; 25 ppm foliar spray only) | disease control grading, Cercospora arachidicola (peanut) (Cercospora arachidicola; 25 ppm foliar spray only) | disease control grading, Puccinia recondita (wheat) (Puccinia recondita; 25 ppm foliar spray only) |
| --- | --- | --- | --- | --- | --- | --- | --- | --- | --- | --- | --- | --- | --- | --- |
| CO/C=C(/C(=O)OC)c1ccccc1Oc1cccc(C)n1 [Compound 21 (Table I)] | 3 (trace-5% of disease on untreated plants) | 4 | 4 | 4 | 4 | 4 | 3 (trace-5% of disease on untreated plants) |  |  |  |  |  |  |  |
| CO/C=C(/C(=O)OC)c1ccccc1Oc1ccc(NC=O)cn1 [Compound 130 (Table I)] | 0 (60-100% of disease on untreated plants) | 0 (60-100% of disease on untreated plants) | 0 (60-100% of disease on untreated plants) | 0 (60-100% of disease on untreated plants) | 0 (60-100% of disease on untreated plants) | 4 | 3 (trace-5% of disease on untreated plants) |  |  |  |  |  |  |  |
| CO/C=C(/C(=O)OC)c1ccccc1Oc1ccc2ccccc2n1 [Compound 165 (Table I)] | 3 (trace-5% of disease on untreated plants) | 2 (6-25% of disease on untreated plants) | 4 | 4 | 4 | 4 | 2 (6-25% of disease on untreated plants) |  |  |  |  |  |  |  |
| CO/C=C(/C(=O)OC)c1ccccc1Oc1ccc(N)cn1 [Compound 131 (Table I)] | 0 (60-100% of disease on untreated plants) | 0 (60-100% of disease on untreated plants) | 0 (60-100% of disease on untreated plants) | 0 (60-100% of disease on untreated plants) | 0 (60-100% of disease on untreated plants) | 0 (60-100% of disease on untreated plants) | 3 (trace-5% of disease on untreated plants) |  |  |  |  |  |  |  |
| CO/C=C(/C(=O)OC)c1ccccc1Sc1ccc(Br)cn1 [Compound 15 (Table II), (E)-methyl 2-[2'-(5"-bromopyridin-2"-ylthio)phenyl]-3-methoxyacrylate] | 0 (60-100% of disease on untreated plants) | 0 (60-100% of disease on untreated plants) | 4 | 3 (trace-5% of disease on untreated plants) | 0 (60-100% of disease on untreated plants) | 1 (26-59% of disease on untreated plants) | 2 (6-25% of disease on untreated plants) |  |  |  |  |  |  |  |
| CO/C=C(/C(=O)OC)c1ccccc1Oc1ccc([N+](=O)[O-])cn1 [Compound 133 (Table I), (E)-methyl 2-[2'-(5"-nitropyridin-2"-yloxy)phenyl]-3-methoxyacrylate] | 0 (60-100% of disease on untreated plants) | 4 | 4 | 4 | 4 |  | 4 |  |  |  |  |  |  |  |
| CO/C=C(/C(=O)OC)c1ccccc1Oc1nc(C)cc(Cl)n1 [Compound 166 (Table I)] | 3 (trace-5% of disease on untreated plants) | 1 (26-59% of disease on untreated plants) | 3 (trace-5% of disease on untreated plants) | 4 | 4 | 4 | 4 |  |  |  |  |  |  |  |
| CO/C=C(/C(=O)OC)c1ccccc1[S+]([O-])c1ccc(Br)cn1 (stereo not shown) [Compound 1 (Table III), (E)--methyl 2-(2'-(5"-bromopyridin-2"-ylsulphinyl)phenyl]-3-methoxyacrylate] |  |  |  |  |  |  |  | 0 (60-100% of disease on untreated plants) | 0 (60-100% of disease on untreated plants) | 0 (60-100% of disease on untreated plants) | 0 (60-100% of disease on untreated plants) | 3 (trace-5% of disease on untreated plants) | 0 (60-100% of disease on untreated plants) | 0 (60-100% of disease on untreated plants) |
| CO/C=C(/C(=O)OC)c1ccccc1Oc1cc(C)ccn1 [Compound 10 (Table I)] | 4 | 4 | 4 | 4 | 4 | 3 (trace-5% of disease on untreated plants) | 4 |  |  |  |  |  |  |  |
| CO/C=C(/C(=O)OC)c1ccccc1Sc1ccc(Cl)cn1 [Compound 14 (Table II), (E-)-methyl 2-[2'-(5"-chloropyridin-2"-ylthio)phenyl]-3-methoxyacrylate] | 0 (60-100% of disease on untreated plants) | 3 (trace-5% of disease on untreated plants) | 4 | 4 | 4 | 4 | 4 |  |  |  |  |  |  |  |
| CO/C=C(/C(=O)OC)c1ccccc1Oc1cc(C(Cl)(Cl)Cl)nc(Cl)n1 [Compound 139 (Table I)] | 0 (60-100% of disease on untreated plants) | 2 (6-25% of disease on untreated plants) | 4 | 0 (60-100% of disease on untreated plants) | 0 (60-100% of disease on untreated plants) | 4 | 4 |  |  |  |  |  |  |  |
| CO/C=C(/C(=O)OC)c1ccccc1Oc1ncc(C(F)(F)F)cc1[N+](=O)[O-] [Compound 129 (Table I)] | 0 (60-100% of disease on untreated plants) | 0 (60-100% of disease on untreated plants) | 0 (60-100% of disease on untreated plants) | 4 | 4 | 0 (60-100% of disease on untreated plants) | 0 (60-100% of disease on untreated plants) |  |  |  |  |  |  |  |
| CO/C=C(/C(=O)OC)c1ccccc1S(=O)(=O)c1ccc(Br)cn1 [Compound 2 (Table III), (E)-meth-yl 2-(2'-(5"-bromopyridin-2"-ylsulphonyl)phenyl]-3-methoxyacrylate] | 0 (60-100% of disease on untreated plants) | 0 (60-100% of disease on untreated plants) | 0 (60-100% of disease on untreated plants) | 0 (60-100% of disease on untreated plants) | 3 (trace-5% of disease on untreated plants) | 0 (60-100% of disease on untreated plants) | 3 (trace-5% of disease on untreated plants) |  |  |  |  |  |  |  |
| CO/C=C(/C(=O)OC)c1ccccc1Oc1nc(F)cc(F)n1 [Compound 137 (Table I)] | 0 (60-100% of disease on untreated plants) | 0 (60-100% of disease on untreated plants) | 0 (60-100% of disease on untreated plants) | 0 (60-100% of disease on untreated plants) | 4 | 0 (60-100% of disease on untreated plants) | 2 (6-25% of disease on untreated plants) |  |  |  |  |  |  |  |
| CO/C=C(/C(=O)OC)c1ccccc1Oc1cc(F)nc(Cl)c1 [Compound 167 (Table I)] |  | 3 (trace-5% of disease on untreated plants) | 4 | 4 | 4 | 0 (60-100% of disease on untreated plants) | 4 |  |  |  |  |  |  |  |
